Results on one compound are retold here after patent publication US7786142B2, “Heterocyclic compounds as pSTAT3/IL-6 inhibitors” (Orchid Research Laboratories, Ltd., priority 2005, dated 2010).

“Also recorded” adds a separate entry of the source.

For the assay, the system named is pSTAT3. Kind of assay: pSTAT3 inhibition (Western blot in DU 145 / SKOV-3 cells; ELISA in HepG2 cells). The format is cell-based. As to conditions: in words; FIGS. 1 and 2. On the procedure:
Western blot analysis was performed as described by Kammer W et. al (J Biol Chem 271, 23634-23637, and J Biol Chem 273, 31222-31229). Briefly, 60 μg of whole cell extract was solubilized in Laemmeli buffer (50 mM Tris/HCl, pH 6.8, 2% SDS, 10% glycerol, 1 mM DTT, 1× Protease inhibitor cocktail, SET-3 (Calbiochem), 1 mM Sodium Ortho-vanadate) boiled for 5-10 minutes, and separated on a 10 or 12% acrylamide SDS gel. After protein transfer, the nitrocellulose membranes were blocked in blocking buffer for 2 hour (1×TBS, 0.1% Tween-20, 5% BSA). Membranes were incubated for 20 hours in blocking buffer containing, STAT3 P-Tyr705 (Santa Cruz Biotech), STAT3 (H-190, Santa Cruz Biotech) and Actin (C-2, Santa Cruz Biotech) antibody at 1:300 dilution. Detection was performed with HRP conjugated antimouse/antirabbit IgG (Santa Cruz Biotech) at a dilution of 1:3,000 for 1 hour. Visualization was performed using an Enhanced Chemiluminescence detection kit (Amersham). See Appended Diagrams: FIGS. 1 and 2. […]
Capture Antibody was diluted to a working concentration of 2.0 μg/mL in PBS. […] The plates were made ready after 2-3 washes with wash buffer. […] The reaction was stopped by adding 50 μl of stop solution to each well and the OD was determined using a microplate reader at 450 nm.
On the technique in general: Immunoblotting shows a protein as a band on a membrane.

In the case of `COc1ccc(CNC[C@H](O)COc2cccc3[nH]c4ccccc4c23)c(OC)c1` [Example 25, (2S)-1-(9H-carbazol-4-yloxy)-3-[(2,4-dimethoxybenzyl)amino]propan-2-ol], the pSTAT3 inhibition result is given as “work through pSTAT3 inhibition; also recorded: operates through pSTAT3 inhibition”.
